Measured values published in PMC3914206.

Tests used:
Format in all cases: binding
Conditions in all cases: Compound Concentration 10 µM
panel of 442 kinases [1] = target: T1, panel of 442 kinases (Homo sapiens, UniProt P08581)
T1 construct: purchased KINOMEscan
Description: (§1) We assessed the selectivity of members of this scaffold using the KINOMEscan methodology across a near comprehensive panel of 442 kinases [[18,27]].

panel of 442 kinases [2] = target: T2, panel of 442 kinases (Homo sapiens, UniProt Q9BZL6)
T2 construct: purchased KINOMEscan
T2 sequence (Q9BZL6 1-878): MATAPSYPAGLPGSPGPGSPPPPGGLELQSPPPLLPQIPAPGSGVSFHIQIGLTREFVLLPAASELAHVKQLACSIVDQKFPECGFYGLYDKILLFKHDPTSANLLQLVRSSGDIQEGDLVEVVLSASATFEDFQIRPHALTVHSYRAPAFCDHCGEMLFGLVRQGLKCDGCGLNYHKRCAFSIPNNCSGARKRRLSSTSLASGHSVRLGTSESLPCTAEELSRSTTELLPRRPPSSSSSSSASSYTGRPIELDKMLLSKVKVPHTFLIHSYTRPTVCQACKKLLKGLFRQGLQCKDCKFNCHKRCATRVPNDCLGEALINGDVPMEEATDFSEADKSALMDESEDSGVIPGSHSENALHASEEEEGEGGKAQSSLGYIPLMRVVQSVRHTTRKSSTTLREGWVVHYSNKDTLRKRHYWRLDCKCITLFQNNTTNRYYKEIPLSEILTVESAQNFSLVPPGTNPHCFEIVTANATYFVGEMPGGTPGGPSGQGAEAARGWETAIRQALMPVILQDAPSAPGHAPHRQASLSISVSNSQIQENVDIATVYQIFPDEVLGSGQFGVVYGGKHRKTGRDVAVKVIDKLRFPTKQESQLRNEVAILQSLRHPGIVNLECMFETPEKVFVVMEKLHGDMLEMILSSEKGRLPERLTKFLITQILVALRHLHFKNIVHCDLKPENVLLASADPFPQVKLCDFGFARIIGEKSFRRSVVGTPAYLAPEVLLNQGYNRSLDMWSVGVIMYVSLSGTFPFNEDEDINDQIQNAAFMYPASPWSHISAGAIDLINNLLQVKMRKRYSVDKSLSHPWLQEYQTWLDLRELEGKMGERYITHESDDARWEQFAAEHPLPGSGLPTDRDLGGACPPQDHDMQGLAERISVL
Description: as §1

panel of 442 kinases [3] = target: T3, panel of 442 kinases (Homo sapiens, UniProt Q16512)
T3 construct: purchased KINOMEscan
Description: as §1

T1 sequence (P08581 25-1390): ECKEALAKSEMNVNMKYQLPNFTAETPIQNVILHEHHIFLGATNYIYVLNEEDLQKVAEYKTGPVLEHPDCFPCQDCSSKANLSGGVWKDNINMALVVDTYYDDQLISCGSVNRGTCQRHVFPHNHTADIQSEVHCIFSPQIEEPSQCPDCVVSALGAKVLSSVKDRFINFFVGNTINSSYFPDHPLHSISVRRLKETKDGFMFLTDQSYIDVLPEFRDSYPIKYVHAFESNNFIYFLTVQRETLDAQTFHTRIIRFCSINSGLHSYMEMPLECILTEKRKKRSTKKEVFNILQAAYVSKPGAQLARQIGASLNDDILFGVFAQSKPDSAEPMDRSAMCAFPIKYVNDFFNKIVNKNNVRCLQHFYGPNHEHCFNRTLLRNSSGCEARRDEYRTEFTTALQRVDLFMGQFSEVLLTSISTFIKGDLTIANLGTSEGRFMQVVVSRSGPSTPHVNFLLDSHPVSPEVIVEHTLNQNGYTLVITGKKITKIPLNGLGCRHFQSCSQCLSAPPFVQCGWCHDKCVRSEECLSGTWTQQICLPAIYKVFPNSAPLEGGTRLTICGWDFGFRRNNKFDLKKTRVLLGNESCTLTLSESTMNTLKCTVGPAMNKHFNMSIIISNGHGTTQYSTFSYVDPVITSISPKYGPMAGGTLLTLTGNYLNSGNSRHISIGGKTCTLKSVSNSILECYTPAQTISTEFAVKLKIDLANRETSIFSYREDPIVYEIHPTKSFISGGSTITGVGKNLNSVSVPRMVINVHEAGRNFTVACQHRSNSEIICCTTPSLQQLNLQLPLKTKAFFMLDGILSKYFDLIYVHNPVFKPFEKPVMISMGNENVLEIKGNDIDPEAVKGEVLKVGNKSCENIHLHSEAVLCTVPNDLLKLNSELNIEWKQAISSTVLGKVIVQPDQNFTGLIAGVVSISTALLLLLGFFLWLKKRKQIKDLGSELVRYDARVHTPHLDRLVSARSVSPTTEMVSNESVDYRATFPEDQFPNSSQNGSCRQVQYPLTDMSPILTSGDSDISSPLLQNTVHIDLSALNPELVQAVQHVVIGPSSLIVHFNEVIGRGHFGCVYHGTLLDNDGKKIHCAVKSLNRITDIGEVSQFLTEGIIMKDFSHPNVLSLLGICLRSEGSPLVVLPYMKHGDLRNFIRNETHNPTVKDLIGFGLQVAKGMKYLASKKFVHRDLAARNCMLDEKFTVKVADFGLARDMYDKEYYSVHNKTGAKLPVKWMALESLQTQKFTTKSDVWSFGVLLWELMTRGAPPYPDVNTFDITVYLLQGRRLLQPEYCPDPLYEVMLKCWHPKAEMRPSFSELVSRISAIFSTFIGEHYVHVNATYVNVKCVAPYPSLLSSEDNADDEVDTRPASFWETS
T3 sequence (Q16512 whole entry): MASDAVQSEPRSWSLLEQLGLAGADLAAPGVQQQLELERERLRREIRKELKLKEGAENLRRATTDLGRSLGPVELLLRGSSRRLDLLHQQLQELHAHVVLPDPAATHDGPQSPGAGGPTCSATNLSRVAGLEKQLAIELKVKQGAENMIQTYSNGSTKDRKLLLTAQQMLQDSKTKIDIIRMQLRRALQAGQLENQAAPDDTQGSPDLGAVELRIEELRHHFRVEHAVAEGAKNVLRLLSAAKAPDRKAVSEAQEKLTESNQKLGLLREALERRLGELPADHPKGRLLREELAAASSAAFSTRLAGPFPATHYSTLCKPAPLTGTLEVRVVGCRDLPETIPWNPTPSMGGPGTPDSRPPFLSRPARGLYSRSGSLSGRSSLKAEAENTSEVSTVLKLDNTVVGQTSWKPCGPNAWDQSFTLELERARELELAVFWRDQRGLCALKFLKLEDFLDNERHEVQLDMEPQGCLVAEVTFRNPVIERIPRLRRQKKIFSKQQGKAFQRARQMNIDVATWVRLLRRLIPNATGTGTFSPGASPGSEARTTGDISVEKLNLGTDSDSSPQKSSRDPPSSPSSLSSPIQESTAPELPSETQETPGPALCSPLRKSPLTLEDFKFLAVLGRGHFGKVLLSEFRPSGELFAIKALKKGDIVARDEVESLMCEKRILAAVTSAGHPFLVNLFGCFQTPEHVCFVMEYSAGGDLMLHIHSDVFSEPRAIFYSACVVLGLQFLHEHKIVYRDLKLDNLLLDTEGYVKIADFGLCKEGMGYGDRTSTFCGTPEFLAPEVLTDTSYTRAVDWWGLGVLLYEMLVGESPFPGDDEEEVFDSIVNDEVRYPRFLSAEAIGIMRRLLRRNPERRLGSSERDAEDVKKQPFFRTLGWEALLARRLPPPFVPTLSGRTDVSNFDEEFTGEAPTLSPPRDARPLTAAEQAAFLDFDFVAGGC

Row | Structure (SMILES) | KINOMEscan: MET (panel of 442 kinases [1]) | KINOMEscan: PRKD2 (panel of 442 kinases [2]) | KINOMEscan: PKN1 (panel of 442 kinases [3])
1 | COc1cc(C(=O)N2CCC(N3CCN(C)CC3)CC2)ccc1Nc1ncc2c(n1)N(C)c1ccccc1C(=O)N2C [15 (LRRK2-IN-1)] | 100 | 59 | 100
2 | COc1cc(C(=O)N2CCC(N3CCN(C)CC3)CC2)ccc1Nc1ncc2c(n1)N1CCc3cccc(c31)C(=O)N2C [Compound 24] |  | 30 | 
3 | COc1cc(C(=O)N2CCC(N3CCN(C)CC3)CC2)ccc1Nc1ncc2c(n1)N(C1CCCC1)c1ccccc1C(=O)N2C [Compound 25, 11-cyclopentyl-2-((2-methoxy-4-(4-(4-methylpiperazin-1-yl)piperidine-1-carbonyl)phenyl)amino)-5-methyl-5H-benzo[e]pyrimido[5,4-b][1,4]diazepin-6(11H)-one] | 97 | 87 | 100
4 | CCOc1cc(C(=O)N2CCC(N3CCN(C)CC3)CC2)ccc1Nc1ncc2c(n1)N(C1CCCC1)c1ccccc1C(=O)N2C [Compound 26] | 100 | 100 | 100
